Source: patent publication US12492196B2, “Thienyloxazolones and analogues” (Bayer Aktiengesellschaft, priority 2019, dated 2025)
Like-named read-outs stand apart in the source and are kept apart here.

Assays:
[1] = Log P by HPLC on reversed phase columns (EEC directive 79/831 Annex V.A8); assay type: physicochemical; details: for chromatographic logP: reversed phase HPLC columns
Protocol: In the above table, measurement of Log P values was performed according to EEC directive 79/831 Annex V.A8 by HPLC (High Performance Liquid Chromatography) on reversed phase columns with the following methods: • [^a] Log P value is determined by measurement of LC-UV, in an acidic range, with 0.1% formic acid in water and acetonitrile as eluent (linear gradient from 10% acetonitrile to 95% acetonitrile). • [^b] Log P value is determined by measurement of LC-UV, in a neutral range, with 0.001 molar ammonium acetate solution in water and acetonitrile as eluent (linear gradient from 10% acetonitrile to 95% acetonitrile). • [^c] Log P value is determined by measurement of LC-UV, in an acidic range, with 0.1% phosphoric acid and acetonitrile as eluent (linear gradient from 10% acetonitrile to 95% acetonitrile).
If more than one Log P value is available within the same method, all the values are given and separated by “+”.
Calibration was done with straight-chain alkan2-ones (with 3 to 16 carbon atoms) with known Log P values (measurement of Log P values using retention times with linear interpolation between successive alkanones). Lambda-max-values were determined using UV-spectra from 200 nm to 400 nm and the peak values of the chromatographic signals.

[2] = system: Uromyces appendiculatus; test: In vivo preventive test on Uromyces appendiculatus (bean rust); details: Uromyces appendiculatus, 240 h, bean, evaluated 10 days after inoculation, read-out: efficacy; for pest or weed control at 31 ppm: 31 ppm of active ingredient; for pest or weed control at 125 ppm: 125 ppm of active ingredient; for pest or weed control at 500 ppm: 500 ppm of active ingredient
Protocol: (§1) The tested active ingredients were prepared by homogenization in a mixture of acetone/Dimethyl sulfoxide/Tween®, and then diluted with water to obtain the desired active material concentration.
The young plants of bean were treated by spraying the active ingredient prepared as described above.
Control plants were treated only with an aqueous solution of acetone/Dimethyl sulfoxide/Tween®.
After 72 hours, the plants were contaminated by spraying the leaves with an aqueous suspension of Uromyces appendiculatus spores. The contaminated bean plants were incubated for 24 hours at 20° C. and at 100% relative humidity and then for 9 days at 20° C. and at 70-80% relative humidity.
The test was evaluated 10 days after the inoculation. 0% means an efficacy which corresponds to that of the control plants while an efficacy of 100% means that no disease was observed.
Compound CMP1 was tested in an in vivo preventive test on Uromyces appendiculatus (bean rust) in the same conditions as described in Example G.

[3] = system: salicylate responsive promoter sequence of the PR1 (pathogenesis-related protein I) gene (AT2G14610); test: Induction of defense gene expression in Arabidopsis thaliana (PR1 promoter-GFP reporter plants); assay type: in vivo; details: 72 h, 3rd day after spraying, mock treated leaves set as 1.00, read-out: relative fluorescence value; for fold induction at 75 ppm: 75 ppm of compound
Protocol: Arabidopsis thaliana reporter plants containing the coding sequence of a green fluorescent protein (GFP) linked to the salicylate responsive promoter sequence of the PR1 (pathogenesis-related protein I) gene (AT2G14610) were grown for five days and then sprayed with compounds. On the 3rd day after spraying, plant fluorescence was assessed with a MacroFluo instrument from Leica Microsystems (Wetzlar, Germany). Fluorescences were quantified with the Meta-Morph Microscopy Automation & Image Analysis Software (Molecular Devices, Sunnyvale, Calif., United States).
Background fluorescence in mock treated leaves was set as 1.00.

[4] = system: Colletotrichum lindemuthianum; test: Colletotrichum lindemuthianum in vitro cell test; assay type: cell-based; details: 144 h, 20 ppm of active ingredient, 6 days incubation, read-out: efficacy (direct activity, inhibition of fungal growth)
Protocol: Solvent: DMSO Culture medium: 14.6 g anhydrous D-glucose (VWR), 7.1 g Mycological Peptone (Oxoid), 1.4 g granulated Yeast Extract (Merck), QSP 1 liter Inoculum: spores suspension Fungicides were solubilized in DMSO and the solution used to prepare the required range of concentrations. The final concentration of DMSO used in the assay was ≤1%. A spore suspension of C. lindemuthianum was prepared and diluted to the desired spore density. Fungicides were evaluated for their ability to inhibit spores germination and mycelium growth in liquid culture assay. The compounds were added in the desired concentration to the culture medium with spores. After 6 days incubation, fungi-toxicity of compounds was determined by spectrometric measurement of mycelium growth. Inhibition of fungal growth was determined by comparing the absorbance values in wells containing the fungicides with the absorbance in control wells without fungicides.

[5] = system: Xanthomonas campestris pv. campestris; test: Xanthomonas campestris pv. campestris in vitro cell test; assay type: cell-based; details: 20 ppm of active ingredient, 24 h incubation, read-out: efficacy (direct activity, inhibition of bacteria growth)
Protocol: Solvent: DMSO Culture medium: LB broth medium (Luria Broth Miller) Sigma Inoculum: bacteria suspension Compounds were solubilized in DMSO and the solution used to prepare the required range of concentrations. The final concentration of DMSO used in the assay was ≤1%. Inoculum was prepared from a pre-culture of bacteria grown in liquid medium and diluted to the desired optical density (OD). Compounds were evaluated for their ability to inhibit bacteria growth in liquid culture assay. The compounds were added in the desired concentrations to culture medium containing the bacteria suspension. After 24 h of incubation, the efficacy of compounds was determined by spectrometric measurement of bacteria growth. Inhibition was determined by comparing the absorbance values in wells containing the compounds with the absorbance in control wells without active ingredients.

[6] = system: Peronospora parasitica; test: In vivo preventive test on Peronospora parasitica (crucifer downy mildew); details: Hyaloperonospora parasitica, 120 h; 125 ppm of active ingredient; cabbage; evaluated 5 days after inoculation; read-out: efficacy
Protocol: as §1
(§2) The young plants of cabbage were treated by spraying the active ingredient prepared as described above. Control plants were treated only with an aqueous solution of acetone/Dimethyl sulfoxide/Tween®.
After 72 hours, the plants were contaminated by spraying the leaves with an aqueous suspension of Peronospora parasitica spores. The contaminated cabbage plants were incubated for 5 days at 20° C. and at 100% relative humidity.
The test was evaluated 5 days after the inoculation. 0% means an efficacy which corresponds to that of the control plants while an efficacy of 100% means that no disease was observed.

[7] = system: Xanthomonas campestris pv. campestris; test: In vivo preventive test on Xanthomonas campestris pv. campestris (black rot on cabbage); details: Xanthomonas campestris, cabbage, evaluated 8 or 10 days after inoculation, read-out: efficacy; for pest or weed control at 31 ppm: 31 ppm of active ingredient; for pest or weed control at 125 ppm: 125 ppm of active ingredient
Protocol: as §1, §2
After 72 hours, the plants were contaminated by spraying the leaves with an aqueous bacteria suspension of Xanthomonas campestris pv. campestris. The contaminated cabbage plants were incubated for 8 or 10 days at 27° C. at 95% relative humidity.
The test was evaluated 8 or 10 days after the inoculation. 0% means an efficacy which corresponds to that of the control plants while an efficacy of 100% means that no disease was observed.
Compound CMP1 was tested in an in vivo preventive test on Xanthomonas campestris pv. campestris (black rot on cabbage) in the same conditions as described in Example F.

[8] = given in preparation examples, method not marked
[9] = method [a]: LC-UV, acidic range, 0.1% formic acid in water and acetonitrile as eluent

Structure (SMILES): O=C(O)C1(NC(=S)c2sc(Br)c(Br)c2F)CC1 [1-{[(4,5-dibromo-3-fluoro-2-thienyl)carbonothioyl]amino}cyclopropanecarboxylic acid]
- chromatographic logP [1, 8]: 2.95

Structure (SMILES): CC1(C)N=C(c2sc(Br)c(Br)c2F)OC1=O [I.16]
- pest or weed control at 31 ppm [2]: 90 to 100%
- pest or weed control at 125 ppm [2]: 90 to 100%
- chromatographic logP [1, 9]: 3.77
- fold induction at 75 ppm [3]: > 2
- fold induction at 300 ppm [3]: > 2
- inhibition at 20 ppm [4]: ≤ 30%
- inhibition at 20 ppm [5]: ≤ 30%
- pest or weed control at 125 ppm [6]: 90 to 100%

Structure (SMILES): O=C1SC(c2sc(Br)c(Br)c2F)=NC12CC2 [I.03, 5-(4,5-dibromo-3-fluoro-2-thienyl)-6-thia-4-azaspiro[2.4]hept-4-en-7-one]
- chromatographic logP [1, 8]: 5.08
- chromatographic logP [1, 9]: 5.08
- fold induction at 300 ppm [3]: > 2
- pest or weed control at 31 ppm [7]: 70 to 79%
- pest or weed control at 125 ppm [7]: 70 to 79%
- inhibition at 20 ppm [4]: ≤ 30%
- inhibition at 20 ppm [5]: ≤ 30%

Structure (SMILES): O=C1OC(c2sc(Br)c(Br)c2Cl)=NC12CCC2 [I.17]
- pest or weed control at 125 ppm [2]: 90 to 100%
- chromatographic logP [1, 9]: 4.51
- fold induction at 75 ppm [3]: > 2
- fold induction at 300 ppm [3]: > 2
- inhibition at 20 ppm [4]: ≤ 30%
- inhibition at 20 ppm [5]: ≤ 30%
- pest or weed control at 125 ppm [6]: 90 to 100%

Structure (SMILES): COC(=O)C1(NC(=S)c2sc(Br)c(Br)c2F)CC1 [methyl 1-{[(4,5-dibromo-3-fluoro-2-thienyl)carbonothioyl]amino}cyclopropanecarboxylate]
- chromatographic logP [1, 8]: 3.91

Structure (SMILES): N#Cc1sc(C2=NC3(CC3)C(=O)O2)cc1Br [I.05]
- LogP [1, 9]: 2.83^[a]

Structure (SMILES): Cc1c(C2=NC(C(C)C)C(=O)O2)sc(Br)c1Br (stereo not shown) [I.10]
- LogP [1, 9]: 5.31^[a]

Structure (SMILES): O=C1SC(c2sc(Br)c(Br)c2I)=NC12CC2 [I.14]
- LogP [1, 9]: 5.61^[a]

Structure (SMILES): Cc1c(C2=NC3(CC3)C(=O)O2)sc(C#N)c1Cl [I.07]
- LogP [1, 9]: 3.25^[a]

Structure (SMILES): O=C(O)c1ccccc1O [Salicylic acid, reference compound]
- fold induction at 300 ppm [3]: 2.7

Structure (SMILES): COC(=O)C1(NC(=O)c2sc(C#N)c(Br)c2C)CC1 [methyl 1-{[(4-bromo-5-cyano-3-methyl-2-thienyl)carbonyl]amino}cyclopropanecarboxylate]
- chromatographic logP [1, 8]: 2.31

Structure (SMILES): Cc1c(C(=O)NC2(C(=O)O)CC2)sc(C#N)c1Br [1-{[(4-bromo-5-cyano-3-methyl-2-thienyl)carbonyl]amino}cyclopropanecarboxylic acid]
- Log P [1, 8]: 1.84
- chromatographic logP [1, 8]: 1.88

Structure (SMILES): CC1(C)N=C(c2sc(Cl)c(Br)c2Br)OC1=O [I.18]
- LogP [1, 9]: 4.32^[a]

Structure (SMILES): Cc1c(C2=NC3(CCC3)C(=O)O2)sc(Cl)c1Cl [I.19]
- pest or weed control at 31 ppm [2]: 90 to 100%
- pest or weed control at 125 ppm [2]: 90 to 100%
- chromatographic logP [1, 9]: 4.75
- inhibition at 20 ppm [4]: ≤ 30%
- inhibition at 20 ppm [5]: ≤ 30%
- pest or weed control at 125 ppm [6]: 90 to 100%

Structure (SMILES): O=C1SC(c2sc(Cl)c(Cl)c2Cl)=NC12CC2 [I.01]
- pest or weed control at 500 ppm [2]: 90 to 100%
- chromatographic logP [1, 9]: 5.61
- fold induction at 300 ppm [3]: > 2
- pest or weed control at 31 ppm [7]: 80 to 89%
- inhibition at 20 ppm [5]: ≤ 30%
- pest or weed control at 125 ppm [6]: 80 to 89%

Structure (SMILES): Cc1c(C2=NC3(CC3)C(=O)S2)sc(Cl)c1Cl [I.15]
- LogP [1]: 5.53^[a]

Structure (SMILES): CC1(C)N=C(c2sc(Cl)c(Br)c2Cl)OC1=O [I.21]
- pest or weed control at 31 ppm [2]: 90 to 100%
- pest or weed control at 125 ppm [2]: 90 to 100%
- chromatographic logP [1, 9]: 4.26
- inhibition at 20 ppm [4]: ≤ 30%
- inhibition at 20 ppm [5]: ≤ 30%
- pest or weed control at 125 ppm [6]: 90 to 100%

Structure (SMILES): Cc1c(C2=NC(C)(C)C(=O)O2)sc(Cl)c1Cl [I.24]
- pest or weed control at 125 ppm [2]: 90 to 100%
- chromatographic logP [1, 9]: 4.51
- inhibition at 20 ppm [4]: ≤ 30%
- inhibition at 20 ppm [5]: ≤ 30%
- pest or weed control at 125 ppm [6]: 80 to 89%

Structure (SMILES): Cc1c(C(=O)O)sc(C#N)c1Br [4-bromo-5-cyano-3-methylthiophene-2-carboxylic acid]
- chromatographic logP [1, 8]: 2.05

Structure (SMILES): Cc1c(C2=NC3(CC3)C(=O)S2)sc(Br)c1Br [I.02]
- pest or weed control at 500 ppm [2]: 70 to 79%
- chromatographic logP [1, 9]: 5.65
- fold induction at 75 ppm [3]: > 2
- fold induction at 300 ppm [3]: > 2
- pest or weed control at 125 ppm [7]: 80 to 89%
- inhibition at 20 ppm [4]: ≤ 30%
- inhibition at 20 ppm [5]: ≤ 30%

Structure (SMILES): CC1(C)N=C(c2sc(Cl)c(Cl)c2Br)OC1=O [I.23]
- pest or weed control at 31 ppm [2]: 70 to 79%
- chromatographic logP [1, 9]: 4.33
- inhibition at 20 ppm [4]: ≤ 30%
- inhibition at 20 ppm [5]: ≤ 30%

Structure (SMILES): O=C1SC(c2sc(Br)c(Br)c2Br)=NC12CC2 [I.04]
- LogP [1, 9]: 5.61^[a]
